Source: patent US7928104B2, “7-phenylalkyl substituted 2-quinolinones and 2-quinoxalinones as poly(ADP-ribose) polymerase inhibitors” (priority 2003, dated 2011)
Counter-ions that a name gives are not always drawn.

Assays:
PARP-1 enzyme [1] = target: T1, PARP-1 enzyme (Homo sapiens, UniProt P09874); assay: In vitro Scintillation Proximity Assay (SPA) for PARP-1 inhibitory activity; assay type: biochemical; details: nicked DNA activated PARP-1, [3H]-NAD+, biotinylated histones; read-out: In vitro SPA pIC50 (converted)
T1 construct: made in house
T1 sequence (P09874 whole entry): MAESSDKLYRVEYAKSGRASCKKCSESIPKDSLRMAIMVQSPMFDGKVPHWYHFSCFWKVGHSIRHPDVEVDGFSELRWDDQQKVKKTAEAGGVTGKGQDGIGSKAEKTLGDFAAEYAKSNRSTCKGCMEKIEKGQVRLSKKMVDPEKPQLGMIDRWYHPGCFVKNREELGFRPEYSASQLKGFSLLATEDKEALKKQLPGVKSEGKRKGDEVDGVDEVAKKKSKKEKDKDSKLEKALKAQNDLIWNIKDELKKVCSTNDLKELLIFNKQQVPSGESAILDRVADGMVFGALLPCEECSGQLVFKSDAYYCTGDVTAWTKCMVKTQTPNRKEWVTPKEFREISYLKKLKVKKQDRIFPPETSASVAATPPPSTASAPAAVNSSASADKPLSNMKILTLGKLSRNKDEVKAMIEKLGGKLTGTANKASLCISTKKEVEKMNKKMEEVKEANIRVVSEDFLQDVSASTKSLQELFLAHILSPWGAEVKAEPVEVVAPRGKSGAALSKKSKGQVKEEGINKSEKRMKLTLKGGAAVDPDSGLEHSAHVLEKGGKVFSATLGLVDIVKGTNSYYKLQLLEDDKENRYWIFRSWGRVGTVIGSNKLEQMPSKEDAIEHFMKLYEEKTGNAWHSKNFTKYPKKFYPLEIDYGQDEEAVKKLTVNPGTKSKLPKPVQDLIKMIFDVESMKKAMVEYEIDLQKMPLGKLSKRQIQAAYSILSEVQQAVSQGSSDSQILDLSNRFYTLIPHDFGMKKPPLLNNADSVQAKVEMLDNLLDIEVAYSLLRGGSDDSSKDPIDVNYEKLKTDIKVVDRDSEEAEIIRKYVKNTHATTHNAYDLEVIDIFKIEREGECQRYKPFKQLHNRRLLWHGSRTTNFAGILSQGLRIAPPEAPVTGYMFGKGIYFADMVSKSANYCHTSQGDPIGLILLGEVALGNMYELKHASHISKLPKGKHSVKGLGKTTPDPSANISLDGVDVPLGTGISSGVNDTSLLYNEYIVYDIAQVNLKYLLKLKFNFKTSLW
Description: Compounds of the present invention were tested in an in vitro assay based on SPA technology (proprietary to Amersham Pharmacia Biotech).
In principle, the assay relies upon the well established SPA technology for the detection of poly(ADP-ribosyl)ation of biotinylated target proteins, i.e histones. This ribosylation is induced using nicked DNA activated PARP-1 enzyme and [^3H]-nicotinamide adenine dinucleotide ([^3H]-NAD^+) as ADP-ribosyl donor.
As inducer of PARP-1 enzyme activity, nicked DNA was prepared. For this, 25 mg of DNA (supplier: Sigma) was dissolved in 25 ml DNAse buffer (10 mM Tris-HCl, pH 7.4; 0.5 mg/ml Bovine Serum Albumine (BSA); 5 mM MgCl2.6H2O and 1 mM KCl) to which 50 μl DNAse solution (1 mg/ml in 0.15 M NaCl) was added. After an incubation of 90 min. at 37° C., the reaction was terminated by adding 1.45 g NaCl, followed by a further incubation at 58° C. for 15 min. The reaction mixture was cooled on ice and dialysed at 4° C. for respectively 1.5 and 2 hours against 1.5 l of 0.2 M KCl, and twice against 1.5 l of 0.01 M KCl for 1.5 and 2 h respectively. The mixture was aliquoted and stored at −20° C. Histones (1 mg/ml, type II-A, supplier: Sigma) were biotinylated using the biotinylation kit of Amersham and stored aliquoted at −20° C. A stock solution of 100 mg/ml SPA poly(vinyl toluene) (PVT) beads (supplier: Amersham) was made in PBS. A stock solution of [^3H]-NAD^+ was made by adding 120 μl of [^3H]-NAD^+ (0.1 mCi/ml, supplier: NEN) to 6 ml incubation buffer (50 mM Tris/HCl, pH 8; 0.2 mM DTT; 4 mM MgCl2). A solution of 4 mM NAD^+ (supplier: Roche) was made in incubation buffer (from a 100 mM stock solution in water stored at −20° C.). The PARP-1 enzyme was produced using art known techniques, i.e. cloning and expression of the protein starting from human liver cDNA. Information concerning the used protein sequence of the PARP-1 enzyme including literature references can be found in the Swiss-Prot database under primary accession number P09874. Biotinylated histones and PVT-SPA beads were mixed and pre-incubated for 30 min. at room temperature. PARP-1 enzyme (concentration was lot dependent) was mixed with the nicked DNA and the mixture was pre-incubated for 30 min. at 4° C. Equal parts of this histones/PVT-SPA beads solution and PARP-1 enzyme/DNA solution were mixed and 75 μl of this mixture together with 1 μl of compound in DMSO and 25 μl of [^3H]-NAD^+ was added per well into a 96-well microtiterplate. The final concentrations in the incubation mixture were 2 μg/ml for the biotinylated histones, 2 mg/ml for the PVT-SPA beads, 2 μg/ml for the nicked DNA and between 5-10 μg/ml for the PARP-1 enzyme. After incubation of the mixture for 15 min. at room temperature, the reaction was terminated by adding 100 μl of 4 mM NAD^+ in incubation buffer (final concentration 2 mM) and plates were mixed. The beads were allowed to sediment for at least 15 min. and plates transferred to a TopCountNXT™ (Packard) for scintillation counting, values were expressed as counts per minute (cpm). For each experiment, controls (containing PARP-1 enzyme and DMSO without compound), a blank incubation (containing DMSO but no PARP-1 enzyme or compound) and samples (containing PARP-1 enzyme and compound dissolved in DMSO) were run in parallel. All compounds tested were dissolved and eventually further diluted in DMSO. […] In each test, the blank value was subtracted from both the control and the sample values. The control sample represented maximal PARP-1 enzyme activity. For each sample, the amount of cpm was expressed as a percentage of the mean cpm value of the controls. When appropriate, IC50-values (concentration of the drug, needed to reduce the PARP-1 enzyme activity to 50% of the control) were computed using linear interpolation between the experimental points just above and below the 50% level. Herein the effects of test compounds are expressed as pIC50 (the negative log value of the IC50-value). […]

PARP-1 enzyme [2] = target: T1, PARP-1 enzyme; assay: In vitro filtration assay for PARP-1 inhibitory activity; assay type: biochemical; details: nicked DNA activated PARP-1, [32P]-NAD+, histones; read-out: In vitro filtration assay pIC50 (converted)
Description: Compounds of the present invention were tested in an in vitro filtration assay assessing PARP-1 activity (triggered in the presence of nicked DNA) by means of its histone poly(ADP-ribosyl)ation activity using [^32P]-NAD as ADP-ribosyl donor. The radioactive ribosylated histones were precipitated by trichloroacetic acid (TCA) in 96-well filterplates and the incorporated [^32P] measured using a scintillation counter
A mixture of histones (stock solution: 5 mg/ml in H2O), NAD^+ (stock solution: 100 mM in H2O), and [^32P]-NAD^+ in incubation buffer (50 mM Tris/HCl, pH 8; 0.2 mM DTT; 4 mM MgCl2) was made. A mixture of the PARP-1 enzyme (5-10 μg/ml) and nicked DNA was also made. The nicked DNA was prepared as described in the in vitro SPA for PARP-1 inhibitory activity. Seventy-five μl of the PARP-1 enzyme/DNA mixture together with 1 μl of compound in DMSO and 25 μl of histones-NAD^+/[^32P]-NAD^+ mixture was added per well of a 96-well filterplate (0.45 μm, supplier Millipore). The final concentrations in the incubation mixture were 2 μg/ml for the histones, 0.1 mM for the NAD^+, […] (0.5 μC) for the [^32P]-NAD^+ and 2 μg/ml for the nicked DNA. Plates were incubated for 15 min. at room temperature and the reaction was terminated by the addition of 10 μl ice cold 100% TCA followed by the addition of 10 μl ice-cold BSA solution (1% in H2O). The protein fraction was allowed to precipitate for 10 min. at 4° C. and plates were vacuum filtered. The plates were subsequently washed with, for each well, 1 ml of 10% ice cold TCA, 1 ml of 5% ice cold TCA and 1 ml of 5% TCA at room temperature. Finally 100 μl of scintillation solution (Microscint 40, Packard) was added to each well and the plates were transferred to a TopCountNXT™ (supplier: Packard) for scintillation counting and values were expressed as counts per minute (cpm). For each experiment, controls (containing PARP-1 enzyme and DMSO without compound), a blank incubation (containing DMSO but no PARP-1 enzyme or compound) and samples (containing PARP-1 enzyme and compound dissolved in DMSO) were run in parallel. All compounds tested were dissolved and eventually further diluted in DMSO. In first instance, compounds were tested at a concentration of 10^−5M. […] In each test, the blank value was subtracted from both the control and the sample values. The control sample represented maximal PARP-1 enzyme activity. For each sample, the amount of cpm was expressed as a percentage of the mean cpm value of the controls. When appropriate, IC50-values (concentration of the drug, needed to reduce the PARP-1 enzyme activity to 50% of the control) were computed using linear interpolation between the experimental points just above and below the 50% level. Herein the effects of test compounds are expressed as pIC50 (the negative log value of the IC50−-value). As a reference compound, 4-amino-1,8-naphthalimide was included to validate the filtration assay.

[3] = test system: ischemia and reperfusion of the heart; details: rabbits, cited from earlier work
colitis = details: rats, colitis induced by intraluminal trinitrobenzene sulfonic acid in 50% ethanol; cited from earlier work

| IC50 (PARP-1 enzyme [1]) [nM] | IC50 (PARP-1 enzyme [2]) [nM] | Structure (SMILES) | other results |
| --- | --- | --- | --- |
| 206 | – | CCc1nc2ccc(CC(c3ccccc3)n3ccnc3)cc2[nH]c1=O (stereo not shown) [Compound 1] | melting point: 166 °C |
| 329 | 6380 | CCc1nc2ccc(CC(c3ccc(Cl)cc3)n3ccnc3)cc2[nH]c1=O (stereo not shown) [Compound 15] | – |
| 7.5 | – | CCc1nc2ccc(C(c3ccccc3)N3CCC(NCCOC)CC3)cc2[nH]c1=O (stereo not shown) [Compound 2] | – |
| 236 | 693 | CCc1nc2ccc(C(c3ccc(Cl)cc3)N3CCCCC3)cc2[nH]c1=O (stereo not shown) [Compound 5] | – |
| 231 | 615 | CCc1nc2ccc(C(c3ccccc3)n3ccnc3)cc2[nH]c1=O (stereo not shown) [Compound 19] | – |
| 334 | – | CCc1nc2ccc(C(c3ccccc3)n3cncn3)cc2[nH]c1=O (stereo not shown) [Compound 17] | – |
| 718 | 4940 | CCc1nc2ccc(C(c3ccccc3F)n3ccnc3)cc2[nH]c1=O (stereo not shown) [Compound 13] | – |
| 914 | – | CCc1nc2ccc(CC(O)c3ccccc3)cc2[nH]c1=O (stereo not shown) [Compound 11] | – |
| 728 | 3600 | CCc1nc2ccc(C(c3cccc(F)c3)n3ccnc3)cc2[nH]c1=O (stereo not shown) [Compound 12] | – |
| 4110 | > 10000 | Cc1nc2ccc(C(c3ccc(Cl)cc3)n3ccnc3)cc2[nH]c1=O (stereo not shown) [Compound 20, 7-[(4-chlorophenyl)-1H-imidazol-1-ylmethyl]-3-methyl-2(1H)-quinoxalinone] | – |
| 1600 | 2670 | CCc1nc2ccc(C(c3ccccc3)n3cccn3)cc2[nH]c1=O (stereo not shown) [Compound 14] | – |
| 577 | 4530 | CCc1nc2ccc(C(c3ccccc3)c3cccnc3)cc2[nH]c1=O (stereo not shown) [Compound 16] | – |
| 312 | – | CCc1nc2ccc(C(NCCCN(C)Cc3ccccc3)c3ccccc3)cc2[nH]c1=O (stereo not shown) [Compound 9] | – |
| 818 | – | CCOC(=O)C1CCN(C(c2ccc(Cl)cc2)c2ccc3nc(CC)c(=O)[nH]c3c2)CC1 (stereo not shown) [Compound 6] | – |
| – | – | NC(=O)c1cccc(N)c1 [3-amino-benzamide] | reduction in infarct size in the heart ([3]; single injection 10 mg/kg, one minute before occlusion or one minute before reperfusion): 32-42%; effect on inflammatory response, distal colon (colitis): reduced the inflammatory response |
| 552 | – | CCc1nc2ccc(CC(O)c3ccc(Cl)cc3)cc2[nH]c1=O (stereo not shown) [Compound 10] | – |
| 1000 | 4130 | CCc1nc2ccc(C(c3ccc(F)cc3)n3ccnc3)cc2[nH]c1=O (stereo not shown) [Compound 18] | – |
| 899 | 9890 | Cc1cc2ccc(C(CCN(C)C)c3ccccc3)cc2[nH]c1=O (stereo not shown) [Compound 3] | – |
| 586 | – | CCc1nc2ccc(CC(c3ccc(Cl)cc3)N3CCCC3)cc2[nH]c1=O (stereo not shown) [Compound 7] | – |
| – | – | Oc1cccc2c(O)nccc12 [1,5-dihydroxyisoquinoline] | reduction in infarct size ([3]; single injection 1 mg/kg): 38-48% |
| 409 | – | CCc1nc2ccc(C(O)c3ccccc3)cc2[nH]c1=O (stereo not shown) [Compound 4] | melting point: 202 °C |
| – | – | CCc1nc2ccc(C(c3ccccc3)N3CCC(NCCOC)CC3)cc2[nH]c1=O (stereo not shown) (as salt: salt) [Compound 2] | melting point: 98 °C |
| 411 | 1410 | Cc1nc2ccc(C(c3ccc(C(C)C)cc3)n3ccnc3)cc2[nH]c1=O (stereo not shown) [Compound 8] | – |
